From paper PMC12040169 (PLOS Biology, 2025)

Experiment: in vitro
Conditions: human, hela cells

Row | SMILES | viability at 28.5 h, 10 µM (% viability) | viability at 28.5 h, 10 µM
1 | O=C(CCNS(=O)(=O)c1ccccc1)OCc1ccc([N+](=O)[O-])cc1 [CBK296659] | 94.4% | –
2 | COc1ccc(-n2c(CNCc3ccc4c(c3)OCO4)nc3ccccc3c2=O)cc1 [CBK074522] | 102% | –
3 | O=C(O)c1cnc(-c2ccccc2)nc1 [CBK261272] | 93.2% | –
4 | Nc1cc2ccccc2c(-c2ccncc2)n1 [CBK085708] | 99.1% | –
5 | CN(CC(=O)O/N=C(\N)c1ccccn1)S(=O)(=O)c1ccc(Br)cc1 [CBK268617] | 96.9% | –
6 | COc1ccc(CNCCN)cc1 [CBK013010] | 98.2% | –
7 | COc1ccc(OC)c(C(O)CN2CCc3sccc3C2c2cccs2)c1 (stereo not shown) [CBK285532] | 109% | –
8 | Cc1c2c(nn1C)CSc1ccccc1C2=O [CBK006517] | 92.8% | –
9 | CC(=O)CCc1cc(CCC(N)=O)on1 [CBK023350] | 90.3% | –
10 | CCOc1ccccc1Cn1c2ccccc2c2nc3ccccc3nc21 [CBK266323] | 101% | –
11 | CC(=O)Nc1cccc(NC(=O)c2cc(-c3ccncc3)nc3ccc(Cl)cc23)c1 [CBK267773] | 92.6% | –
12 | Cc1cc(NS(=O)(=O)c2ccc(Oc3ccc(-c4ccccc4)cc3)nc2)no1 [CBK295343] | 90.8% | –
13 | Cc1[nH]c(=O)[nH]c(=O)c1C(=O)Nc1ccccc1 [CBK116181] | 96.4% | –
14 | COc1cccc(C(=O)N2CCC(c3cc4ncccc4[nH]3)CC2)c1 [CBK283398] | 117% | –
15 | Cc1nc(N)sc1-c1csc(Nc2ccc(Cl)cn2)n1 [CBK288532] | 61.4% | –
16 | CCN(CC)C(=O)CN1CCC(Oc2cncc(OCc3ccc(Cl)c(Cl)c3)n2)C1 (stereo not shown) [CBK084431] | 98.2% | –
17 | O=C(Nc1nnc(SCc2cc(=O)n3nc[nH]c3n2)s1)c1ccc(F)cc1 [CBK294399] | 90.2% | –
18 | O=C(CN1CCN(C(=O)C2COc3ccccc3O2)CC1)Nc1ccc2c(c1)OCCO2 (stereo not shown) [CBK074777] | 111% | –
19 | CCN(CCO)C(=O)C(C)Oc1cc(C)ccc1Cl (stereo not shown) [CBK306019] | 86.6% | –
20 | Cc1cc(=O)n(C)c(=O)n1CCCN1CCCCC1 [CBK027584] | 115% | –
21 | Cc1ccc(CNC(=O)OCCN2CCN(C)CC2)o1 [CBK200205] | 112% | –

Row | SMILES | viability at 28.5 h, 10 µM (% viability) | viability at 28.5 h, 10 µM
22 | CCOC(=O)C1(Cc2cc(-c3ccccc3F)no2)CCNCC1 [CBK284580] | 101% | –
23 | O=S(=O)(c1ccc(OC(F)(F)F)cc1)N1CCN(Cc2ccc3c(c2)OCO3)CC1 [CBK200040] | 82.5% | –
24 | Cc1ccc(SCCN2CCN(C)CC2)cc1 [CBK269631C] | 89.2% | –
25 | Cc1cc(Cl)c(S(=O)(=O)Nc2ccon2)cc1OCC(N)=O [CBK266589] | 99.6% | –
26 | O=C(Nc1ccc2[nH]c(C3CCCCC3)nc2c1)C1CCCCC1 [CBK020680] | 87.7% | –
27 | CCOc1ccc(Cc2nnc(S)n2C2CC2)cc1OCC [CBK288388] | 66.4% | –
28 | O=C(CC(CN1CCN(Cc2cccc(Cl)c2)CC1)C(=O)O)Nc1cccc(O)c1 (stereo not shown) [CBK286811] | 88.9% | –
29 | CC(=O)NCCc1c(C(=O)O)[nH]c2ccc(OCc3ccccc3)cc12 [CBK260945] | 87.8% | –
30 | CCCc1[nH]nc(O)c1Cc1ccc(C(C)(C)C)cc1 [CBK075028] | 79.5% | –
31 | COc1ccccc1-c1nccnc1NCc1cccs1 [CBK088682] | 88% | –
32 | COc1ccc([N+](=O)[O-])cc1-c1ccc(-c2nc(-c3ccccc3)c(-c3ccccc3)[nH]2)o1 [CBK262497] | 77.3% | –
33 | COc1ccccc1/C=N/NC(=O)C(=O)NCc1ccccn1 [CBK262286] | 93.7% | –
34 | O=C(O)c1ccc(COc2ccc(/C=C3\SC(=S)N(Cc4cccnc4)C3=O)cc2)cc1 [CBK264637] | 101% | –
35 | Cc1ccc(C(=O)NCCN2CCOCC2)c(N2CCN(C(=O)c3ccco3)CC2)n1 [CBK076312] | 101% | –
36 | O=c1[nH]c2ncc(-c3ccoc3)nc2n1C1CCOCC1 [CBK064973] | 119% | –
37 | O=C(Cn1ncc2cccn2c1=O)OCC(F)(F)F [CBK283554] | 93.7% | –
38 | Cc1cc(C)n(CC(C)C(=O)Nc2cccnc2)n1 (stereo not shown) [CBK307573] | 97.5% | –
39 | O=C(O)c1ccc(CCN2CCCC2)nc1 [CBK034220] | 107% | –
40 | O=C(NCc1ccc2c(c1)OCO2)c1cnc2sccn2c1=O [CBK287446] | 91% | –
41 | Cc1ccccc1-c1ccccc1CC1(C(N)=O)CCN(C(=O)CCc2ccccc2)CC1 [CBK285725] | 102% | –
42 | Cc1cccc(CN2CCC(NC(=O)Cn3cc(Br)ccc3=O)CC2)c1 [CBK305669] | 80% | –

Row | SMILES | viability at 28.5 h, 10 µM (% viability) | viability at 28.5 h, 10 µM
43 | CCc1n[nH]c(C(=O)N/N=C/c2cccnc2)c1C [CBK263386] | 90.4% | –
44 | Cn1cnnc1SCC(C)(C)NS(=O)(=O)c1ccccc1 [CBK268276] | 96.4% | –
45 | Cc1nc(CN2CCCC3(CCN(C(=O)c4ccoc4)C3)C2)cs1 (stereo not shown) [CBK132838] | 97.6% | –
46 | O=C(CC(c1ccccc1)c1c(O)c2ccccc2oc1=O)c1ccc(-c2ccc(Br)cc2)cc1 (stereo not shown) [CBK260877] | – | 91.8%
47 | CCOc1ccccc1-c1noc(CSc2nnc(-c3ccncc3)n2-c2cccc(C)c2)n1 [CBK269076] | 104% | –
48 | COc1ccc(-n2cc(-c3ccc(F)cc3)nn2)cc1 [CBK113111] | 102% | –
49 | c1c2c(cc3sc(N4CCCCC4)nc13)OCCO2 [CBK287497] | 89.3% | –
50 | N#Cc1ccc(COc2cccc(C(F)(F)F)c2)cc1 [CBK002811] | 103% | –
51 | Cc1ccc(S(=O)(=O)CC(=O)N2CCN(C(=O)c3ccco3)CC2)cc1 [CBK144469] | 87.1% | –
52 | N/C(=N\OC(=O)COc1cccc2ccccc12)c1ccc(Cl)cc1 [CBK263004] | 88.4% | –
53 | Nc1nc(CSc2nnc(-c3ccccc3O)n2Cc2ccccc2)cs1 [CBK267394] | 90.4% | –
54 | Cc1ccc2c(c1)CCCN2C(=O)c1csc2c(C(F)(F)F)cc(N3CCOCC3)nc12 [CBK028367] | 116% | –
55 | Cc1cc(COc2ccc(C(F)(F)F)cn2)no1 [CBK115792] | 91.7% | –
56 | CSCCNC(=O)c1coc(COc2ccc3sc(C)nc3c2)n1 [CBK307004] | 99.3% | –
57 | CC(=O)c1cnc2nc(-c3cccnc3)nn2c1C [CBK287859] | 112% | –
58 | O=C(CN(c1ccccc1F)S(=O)(=O)c1ccccc1)Nc1ccccc1C(=O)O [CBK263999] | 97.1% | –
59 | Cc1ccccc1-c1ccccc1CC1(C(N)=O)CCN(C(=O)c2ccccc2)CC1 [CBK285721] | 89.9% | –
60 | CN(C)CCCO/N=C1\CC2(CCCC2)c2ccccc21 [CBK013331] | 80.7% | –
61 | Nc1cc(O)nc(SCC(=O)N2CCN(c3ccccc3)CC2)n1 [CBK267925] | 86% | –
62 | O=C(O)CC1NC(=O)C(Cc2ccccc2)NC1=O (stereo not shown) [CBK286827] | 98.1% | –
63 | Cc1nnnn1-c1cc(NC(=O)NCC2CCCO2)ccc1F (stereo not shown) [CBK305528] | 105% | –

Row | SMILES | viability at 28.5 h, 10 µM (% viability) | viability at 28.5 h, 10 µM
64 | O=C(c1cccs1)N(Cc1ccco1)c1ccc(O)cc1 [CBK269256] | 88.9% | –
65 | Cc1ccc(C)c(NC(=O)C(C)Sc2nc3ccccc3nc2C)c1 (stereo not shown) [CBK296744] | 106% | –
66 | COc1ccc(N(CC(=O)N2CCN(C)CC2)S(=O)(=O)c2ccc(C)c([N+](=O)[O-])c2)cc1 [CBK264051] | 89.8% | –
67 | Cn1nccc1CCNC(=O)c1cccc(S(=O)(=O)N2CCCCC2)c1 [CBK304363] | 97% | –
68 | CCCNc1cncc(-c2ccc(OCC)cc2)n1 [CBK065845] | 99.8% | –
69 | C1CN=C(SCCCSC2=NCCCN2)NC1 [CBK278210B] | 110% | –
70 | CC(SCc1ccccc1)C(=O)NC(C)c1ccccc1 (stereo not shown) [CBK263772] | 103% | –
71 | CC(=O)N[C@H]1C[C@@H](Cc2cc(CN3CCN(c4ccccc4)CC3)on2)C1(C)C [CBK289241] | 109% | –
72 | CCOc1ccccc1/C=N/Nc1ccccc1[N+](=O)[O-] [CBK261673] | 94.7% | –
73 | COc1ccc(C2NC(C(=O)O)C3C(=O)N(c4ccc(C)cc4)C(=O)C23)c(OC)c1 (stereo not shown) [CBK287233] | 90.2% | –
74 | c1cc(-c2cnc(N3CCOCC3)c3nccn23)c2cccnc2c1 [CBK091270] | 93.6% | –
75 | Cn1cc([C@H]2C[C@@H](O)[C@@H](CO)O2)c(=O)n(C)c1=O [CBK201272] | 97.3% | –
76 | COc1ccccc1CC(c1ccccc1)C1CN(C)CCO1 (stereo not shown) [CBK009925C] | 116% | –
77 | O=C1COc2ccccc2CCCC[C@@H]2CN(C(=O)CCN3CCCC3=O)CC[C@H]2N1 [CBK292044] | 91.8% | –
78 | COc1ccc2[nH]cc(CCNC(=O)c3ccco3)c2c1 [CBK116204] | 96.5% | –
79 | O=C(Nc1ccc(-c2ccc(F)cc2)cc1)c1ccc(N2C(=O)CCC2=O)cc1 [CBK285683] | 98% | –
80 | c1ccc(NCCOc2cncc(N3CCCC3)n2)cc1 [CBK115670] | 101% | –
81 | Cc1csc(C(Cc2ccsc2)NC(=O)C2CCCO2)n1 (stereo not shown) [CBK285122] | 107% | –
82 | COCC(=O)N1CCN2C(=O)c3cc(-c4ccccc4F)ccc3NC(=O)[C@H]2C1 [CBK289587] | 82.4% | –
